Patent publication US8952024B2, “Herbicidal pyrimidone derivatives” (E I du Pont de Nemours and Company, priority 2009, dated 2015)
Where two headings read alike, the source gives them in different places.

What was measured:
Type in all cases: in vivo
[1] = tested on: green foxtail (Setaria viridis); test: Test B pre-/postemergence plant response
Summary of the method: (§1)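 Each species received compound formulated in non-phytotoxic solvent with surfactant, either at planting into a loam and sand blend or as a foliar spray once plants reached 2 to 18 cm in peat-based medium. Plants stayed in the greenhouse 13 to 15 days before visual evaluation against controls, scored 0 (no effect) to 100 (complete control).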

[2] = tested on: goosegrass (Eleusine indica); test: Test B pre-/postemergence plant response
Summary of the method: as §1

[3] = tested on: giant foxtail (Setaria faberii); test: Test B pre-/postemergence plant response
Summary of the method: as §1

[4] = tested on: morningglory (Ipomoea coccinea); test: Test B pre-/postemergence plant response
Summary of the method: as §1

[5] = tested on: downy bromegrass (Bromus tectorum); test: Test B pre-/postemergence plant response
Summary of the method: as §1

[6] = tested on: wheat (Triticum aestivum); test: Test B pre-/postemergence plant response
Summary of the method: as §1

[7] = tested on: cocklebur (Xanthium strumarium); test: Test B pre-/postemergence plant response
Summary of the method: as §1

kochia (Kochia scoparia) = test: Test B pre-/postemergence plant response
Summary of the method: as §1

[8] = tested on: pigweed (Amaranthus retroflexus); test: Test B pre-/postemergence plant response
Summary of the method: as §1

[9] = tested on: morningglory (Ipomoea spp.); test: Test A pre-/postemergence plant response; conditions: Ipomoea, 240 h, read-out: Plant response rating, Morningglory; for pest or weed control at 125 g/ha: 125 g ai/ha
Summary of the method: (§2)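 Plants grown from seed in a loam soil and sand mix received test compounds both as a preemergence soil spray and, at the same time, as a postemergence spray at the one- to two-leaf stage. Injury was judged visually against untreated controls roughly ten days later, 0 meaning no effect and 100 complete control.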

[10] = tested on: velvetleaf (Abutilon theophrasti); test: Test A pre-/postemergence plant response; conditions: Abutilon theophrasti, 240 h, read-out: Plant response rating, Velvetleaf; for pest or weed control at 125 g/ha: 125 g ai/ha; for pest or weed control at 500 g/ha: 500 g ai/ha, approx. ten days
Summary of the method: as §2

[11] = tested on: large crabgrass (Digitaria sanguinalis); test: Test A pre-/postemergence plant response; conditions: Digitaria sanguinalis, 240 h, read-out: Plant response rating, Crabgrass, Large; for pest or weed control at 125 g/ha: 125 g ai/ha; for pest or weed control at 500 g/ha: 500 g ai/ha, approx. ten days
Summary of the method: as §2

[12] = tested on: wheat (Triticum aestivum); test: Test A pre-/postemergence plant response; conditions: Triticum aestivum, 240 h, read-out: Plant response rating, Wheat; for plant injury at 125 g/ha: 125 g ai/ha; for plant injury at 500 g/ha: 500 g ai/ha, approx. ten days
Summary of the method: as §2

[13] = 62 g ai/ha, postemergence, 0 is no effect, 100 is complete control, 13 to 15 days
[14] = post-emergence, Postemergence, 0 to 100 scale where 0 is no effect and 100 is complete control
[15] = pre-emergence, Preemergence, 0 to 100 scale, 0 = no effect, 100 = complete control
[16] = post-emergence, Postemergence, 0 to 100 scale, 0 = no effect, 100 = complete control
[17] = pre-emergence, Preemergence, visual injury, 0 to 100 scale (0 no effect, 100 complete control)

O=C1CCCC(O)=C1C(=O)c1cnc(-c2ccccc2)n(C2CCCCC2)c1=O [Compound 128, 3-cyclohexyl-5-[(2-hydroxy-6-oxo-1-cyclohexen-1-yl)carbonyl]-2-phenyl-4(3H)-pyrimidinone]
Foxtail, Green plant response rating (0 to 100 scale) [1, 13]: 95
pest or weed control at 31 g/ha ([1]; Setaria viridis, post-emergence, Postemergence, 31 g ai/ha, 0 to 100 scale (0 no effect, 100 complete control), read-out: Plant response rating, Foxtail, Green): 85%
pest or weed control at 125 g/ha ([1]; Setaria viridis, post-emergence, Postemergence, 125 g ai/ha, scale 0 to 100 (0 no effect, 100 complete control), read-out: Plant response rating, Foxtail, Green): 95%
pest or weed control at 250 g/ha ([1]; Setaria viridis, post-emergence, Postemergence, 250 g ai/ha, scale 0 to 100 (0 no effect, 100 complete control), 13 to 15 days, read-out: Plant response rating, Foxtail, Green): 98%
Goosegrass plant response rating (0 to 100 scale) [2, 13]: 95
pest or weed control at 31 g/ha ([2]; Eleusine indica, post-emergence, Postemergence, 31 g ai/ha, 0 to 100 scale (0 no effect, 100 complete control), read-out: Plant response rating, Goosegrass): 90%
pest or weed control at 125 g/ha ([2]; Eleusine indica, post-emergence, Postemergence, 125 g ai/ha, scale 0 to 100 (0 no effect, 100 complete control), read-out: Plant response rating, Goosegrass): 98%
pest or weed control at 250 g/ha ([2]; Eleusine indica, post-emergence, Postemergence, 250 g ai/ha, scale 0 to 100 (0 no effect, 100 complete control), 13 to 15 days, read-out: Plant response rating, Goosegrass): 98%
Foxtail, Giant plant response rating (0 to 100 scale) [3, 13]: 95
pest or weed control at 31 g/ha ([3]; Setaria faberi, post-emergence, Postemergence, 31 g ai/ha, 0 to 100 scale (0 no effect, 100 complete control), read-out: Plant response rating, Foxtail, Giant): 95%
pest or weed control at 125 g/ha ([3]; Setaria faberi, post-emergence, Postemergence, 125 g ai/ha, scale 0 to 100 (0 no effect, 100 complete control), read-out: Plant response rating, Foxtail, Giant): 98%
pest or weed control at 250 g/ha ([3]; Setaria faberi, post-emergence, Postemergence, 250 g ai/ha, scale 0 to 100 (0 no effect, 100 complete control), 13 to 15 days, read-out: Plant response rating, Foxtail, Giant): 98%
Morningglory plant response rating (0 to 100 scale) [4, 13]: 80
pest or weed control at 31 g/ha ([4]; Ipomoea, post-emergence, Postemergence, 31 g ai/ha, 0 to 100 scale (0 no effect, 100 complete control), read-out: Plant response rating, Morningglory): 80%
pest or weed control at 125 g/ha ([4]; Ipomoea, post-emergence, Postemergence, 125 g ai/ha, scale 0 to 100 (0 no effect, 100 complete control), read-out: Plant response rating, Morningglory): 90%
pest or weed control at 250 g/ha ([4]; Ipomoea, post-emergence, Postemergence, 250 g ai/ha, scale 0 to 100 (0 no effect, 100 complete control), 13 to 15 days, read-out: Plant response rating, Morningglory): 90%
Bromegrass, Downy plant response rating (0 to 100 scale) [5, 13]: 35
pest or weed control at 31 g/ha ([5]; Bromus tectorum, post-emergence, Postemergence, 31 g ai/ha, 0 to 100 scale (0 no effect, 100 complete control), read-out: Plant response rating, Bromegrass, Downy): 30%
pest or weed control at 125 g/ha ([5]; Bromus tectorum, post-emergence, Postemergence, 125 g ai/ha, scale 0 to 100 (0 no effect, 100 complete control), read-out: Plant response rating, Bromegrass, Downy): 40%
pest or weed control at 250 g/ha ([5]; Bromus tectorum, post-emergence, Postemergence, 250 g ai/ha, scale 0 to 100 (0 no effect, 100 complete control), 13 to 15 days, read-out: Plant response rating, Bromegrass, Downy): 50%
Wheat plant response rating (0 to 100 scale) [6, 13]: 0
plant injury at 31 g/ha ([6]; Triticum aestivum, post-emergence, Postemergence, 31 g ai/ha, 0 to 100 scale (0 no effect, 100 complete control), read-out: Plant response rating, Wheat): 0%
plant injury at 125 g/ha ([6]; Triticum aestivum, post-emergence, Postemergence, 125 g ai/ha, scale 0 to 100 (0 no effect, 100 complete control), read-out: Plant response rating, Wheat): 0%
plant injury at 250 g/ha ([6]; Triticum aestivum, post-emergence, Postemergence, 250 g ai/ha, scale 0 to 100 (0 no effect, 100 complete control), 13 to 15 days, read-out: Plant response rating, Wheat): 5%
Cocklebur plant response rating (0 to 100 scale) [7, 13]: 98
pest or weed control at 31 g/ha ([7]; Xanthium strumarium, post-emergence, Postemergence, 31 g ai/ha, 0 to 100 scale (0 no effect, 100 complete control), read-out: Plant response rating, Cocklebur): 98%
pest or weed control at 125 g/ha ([7]; Xanthium strumarium, post-emergence, Postemergence, 125 g ai/ha, scale 0 to 100 (0 no effect, 100 complete control), read-out: Plant response rating, Cocklebur): 100%
pest or weed control at 250 g/ha ([7]; Xanthium strumarium, post-emergence, Postemergence, 250 g ai/ha, scale 0 to 100 (0 no effect, 100 complete control), 13 to 15 days, read-out: Plant response rating, Cocklebur): 100%
Kochia plant response rating (0 to 100 scale) (kochia (Kochia scoparia); [13]): 85
pest or weed control at 31 g/ha (kochia (Kochia scoparia); Bassia scoparia, post-emergence, Postemergence, 31 g ai/ha, 0 to 100 scale (0 no effect, 100 complete control), read-out: Plant response rating, Kochia): 60%
pest or weed control at 125 g/ha (kochia (Kochia scoparia); Bassia scoparia, post-emergence, Postemergence, 125 g ai/ha, scale 0 to 100 (0 no effect, 100 complete control), read-out: Plant response rating, Kochia): 95%
pest or weed control at 250 g/ha (kochia (Kochia scoparia); Bassia scoparia, post-emergence, Postemergence, 250 g ai/ha, scale 0 to 100 (0 no effect, 100 complete control), 13 to 15 days, read-out: Plant response rating, Kochia): 98%
Pigweed plant response rating (0 to 100 scale) [8, 13]: 98
pest or weed control at 31 g/ha ([8]; Amaranthus retroflexus, post-emergence, Postemergence, 31 g ai/ha, 0 to 100 scale (0 no effect, 100 complete control), read-out: Plant response rating, Pigweed): 95%
pest or weed control at 125 g/ha ([8]; Amaranthus retroflexus, post-emergence, Postemergence, 125 g ai/ha, scale 0 to 100 (0 no effect, 100 complete control), read-out: Plant response rating, Pigweed): 98%
pest or weed control at 250 g/ha ([8]; Amaranthus retroflexus, post-emergence, Postemergence, 250 g ai/ha, scale 0 to 100 (0 no effect, 100 complete control), 13 to 15 days, read-out: Plant response rating, Pigweed): 100%
pest or weed control at 125 g/ha [9, 14]: 100%
pest or weed control at 500 g/ha ([9]; post-emergence, Postemergence, 500 g ai/ha, 0 to 100 scale, 0 = no effect, 100 = complete control, approx. ten days): 100%
pest or weed control at 125 g/ha [9, 15]: 80%
pest or weed control at 125 g/ha [10, 14]: 100%
pest or weed control at 500 g/ha [10, 16]: 100%
pest or weed control at 125 g/ha [10, 15]: 80%
pest or weed control at 500 g/ha [10, 17]: 100%
pest or weed control at 125 g/ha [11, 14]: 90%
pest or weed control at 500 g/ha [11, 16]: 90%
pest or weed control at 125 g/ha [11, 15]: 80%
pest or weed control at 500 g/ha [11, 17]: 100%
plant injury at 125 g/ha [12, 14]: 0%
plant injury at 500 g/ha [12, 16]: 20%
plant injury at 125 g/ha [12, 15]: 0%
plant injury at 500 g/ha [12, 17]: 30%
